Results on 21 compounds are retold here after patent US20230202973A1, “BARNESIN A, DERIVATIVES AND USES THEREOF” (Leibniz-Institut Für Naturstoff-Forschung Und …, priority 2018, published 2023).

A short description of data set [1]: Microsome stability assay. The class given is in vitro ADME. The conditions noted are these: for Area rel. [%] (liver microsomes, PC): positive control, relative to t=0; for Area rel. [%] (liver microsomes, NC): 90 min, 1 µM, pH 7.4. Here is the method:
Microsome Stability Assay The liver is the main organ of drug metabolism in the body. Subcellular fractions such as liver microsomes are useful in vitro models of hepatic clearance as they contain many of the drug metabolising enzymes found in the liver. Liver microsomes are subcellular fractions which contain membrane bound drug metabolising enzymes. The microsomes are incubated with the test compound at 37° C. in the presence of the co-factors, which initiates the reaction. The reaction is terminated by the addition of organic solvents containing internal standard. Following centrifugation, the supernatant is analysed on the LC-MS/MS. The disappearance of test compound is monitored over certain time period. Here, a microsome stability assay was used to investigate the metabolism of the compounds; using this assay it is possible to measure in vitro the intrinsic clearance or to identify metabolites formed. For a standard assay the following solutions were used: 360 μL Microsomal solution (1.1 mg/mL in phosphate buffer), 360 μL NADP-regeneration mix (containing NADP (10 mM), MgCl2 (50 mM), glucose-6-phosphate (50 mM), glucose-6-phosphate dehydrogenase (50 U/ml)) and 40 μL phosphate buffer (100 mM, pH 7.4). Diclofenac (10 μL, 200 μM) was used as positive control (360 μL Microsomal solution, 360 μL NADP-regeneration mix and 40 μL Phosphate buffer) and phosphate buffer (360 μL Microsomal solution, 360 μL NADP-regeneration mix) served as negative control. […] The following procedure was applied: 40 μL of the working solution was added to a pre-incubated solution containing the microsomal solution and the NADP-regeneration mix at 37° C./1500 rpm. Samples were prepared as follows: […] Samples were mixed at 1500 rpm for 2 min, centrifuged for 2 min at 16.1 krcf. 5 uL of each sample was injected to a UPLC/HRMS system and the peak areas of the extracted ion chromatograms were determined

Data set [2] concerns the target T1, thermolysin (Bacillus thermoproteolyticus, UniProt P00800).
T1 construct: purchased Sigma-Aldrich P1512
Put plainly: Protease assay with azocasein: thermolysin. The class given is biochemical. The conditions noted are these: 10 mM. As to the method:
(§1) Protease Assays with azocasein: Protease inhibition assays against the proteases papain, ficin, trypsin, pepsin and thermolysin were performed according to the protocol of Garcia-Carreño (loc. cit.) in a reaction buffer containing 25 mM TRIS-HCl, 0.15 M NaCl, pH 7.2 (or pH 3.5 for aspartic protease). The total assay volume was 47 μL buffer with 2 μL of the protease as well as 1 μL of suitable inhibitor or corresponding inhibitor solvent (100% MeoH or water). Final concentration of proteases was as follows: 2 mg/mL for papain (Sigma-Aldrich, P4762), 600 μg/mL for ficin (Sigma-Aldrich, F6008), 80 μg/mL for trypsin (Thermo Fisher, 23266), 60 mg/mL for pepsin (Sigma-Aldrich P6887)) and 2 μg/mL for thermolysin (Sigma-Aldrich, P1512).
(§2) Inhibitors were dissolved in 100% MeOH or water and added to the assay (1 μL); final concentration: 2% MeOH. Samples of control inhibitors were prepared as follows: (1) serine protease (trypsin): PMFS (2 mM) and soybean trypsin inhibitor (240 μM) (Sigma-Aldrich, T1021), (2) cysteine proteases (papain and ficin): iodacetamide (2 mM), (3) […] (pepsin): pepstatin A (1 μg/mL) (Sigma-Aldrich, P4265), (4) metalloprotease (thermolysin): EDTA (10 mM). […] Negative controls were performed with protease alone (without inhibitor) and MeOH at a final concentration of 2% (reference for activity of 100%). Extract absorbance controls were performed using inhibitor (1 μL in MeOH) without protease. Blanks were performed using 49 μL buffer and 1 μL MeOH.
(§3) Samples were incubated with buffer and suitable inhibitor (or without for negative controls) for 1 h at r.t. and the reaction was started afterward by adding 50 μl of […] substrate and incubated for 1 h at 37° C. After stopping the reaction with trichloracetic acid (TCA), the separation of the precipitate was accomplished by centrifugation at 6500 g for 5 min. The hydrolyzed substrate supernatant was incubated in an equal volume of 0.5 N NaOH for 5 min and the absorbance was measured at 440 nm. OD values of the protease control without inhibitor were used as reference for a 100% activity.
(§4) The log IC50 values were determined using the standard curves analyzing tool with four parameter logistic equation of SigmaPlot12 with technical triplicates. Propagation of error was calculated using the standard error and log IC50 values where the equation of error propagation is defined as Δy=0.43Δx/x.

Data set [3] has as its target Cathepsin B (Homo sapiens, UniProt P07858). Put plainly: Activity test against cathepsin B (initial screen, Table 5). The class given is biochemical. The arrangement: dose or concentration left out as unconfirmed. As to the method:
(§5) Activity Tests Against Cathepsin B, Cathepsin L and Rhodesain.
(§6) The determination of the activity of the inhibitors against hCatL and RD was performed in fluorescence-based assays in accordance with the assays described in Giroud et al., ChemMedChem 12 (2017), 257-270 and Schirmeister, Bioorganic & Medicinal Chemistry Letters 27 (2017) 45-50. The biological activities against hCatL were determined using Cbz-Phe-Arg-AMC as substrate, which releases AMC (7-amino-4-methylcoumarin) after amide bond cleavage by the enzyme. The proteolytic activity of the enzyme can be monitored spectrophotometrically by the increase of fluorescence intensity by release of AMC (emission at 460 nm) upon hydrolysis. An initial screen at an inhibitor concentration […] was performed to identify ligands with an inhibition of hCatL and RD higher than 80%.

The target of data set [4] is hCatL (Homo sapiens, UniProt P07711). Put plainly: Fluorescence-based activity test against cathepsin L (Cbz-Phe-Arg-AMC). The class given is biochemical. Details: dose or concentration left out as unconfirmed. As to the method: as §5, §6
Data set [5] can be described thus: Glutathione (GSH) assay. The class given is in vitro ADME. The conditions noted are these: relative to t=0; for Area rel. [%] (GSH assay, NC): negative control: test item in phosphate buffer without GSH, time 90 min; for Area rel. [%] (GSH assay): with GSH, 37° C. As to the method: Procedure: A standard GSH assay includes a phosphate buffer (720 μL), a GSH solution (40 μL, 100 mM) and the test solution of the test compound (20 μM in 10% DMSO in phosphate buffer (100 mM, pH 7.4)). As negative control (NC) serves the test item (20 μM in 10% DMSO in phosphate buffer (100 mM, pH 7.4) in phosphate buffer (760 μL).
Samples are prepared as follows: phosphate buffer (720 μL) and GSH solution (40 μL, 100 mM) were preincubated at 37° C., and 40 μL of the test item solution (or internal standard) added. Then […] of the assay mixture were mixed with 100 μL ACN were at the following time points: t=0, 30 and 90 min; in case of the test item, t=0 and 90 min in case of PC or NC. The samples were mixed for 2 min at 150 rpm, centrifuged at 16.1 (krcf). 5 μL of each samples were injected to a UPLC/HRMS system. The peak areas of the extracted ion chromatograms were determined using the standard software.

Data set [6] has as its target T2, pepsin (Sus scrofa, UniProt P00791).
T2 construct: purchased Sigma-Aldrich P6887
Put plainly: Protease assay with azocasein: pepsin. The conditions noted are these: 1 μg/mL. The class given is biochemical. As to the method: as §1, §2, §3, §4

Square brackets hold non-standard residues; d marks the D form. Peptide text beside a SMILES is read from it. * marks the point of attachment. Sta = CC(C)C[C@H](N)[C@@H](O)CC(=O)O; Isovaleryl = CC(C)CC(=O)*

hCatL, sequence (P07711 114-333): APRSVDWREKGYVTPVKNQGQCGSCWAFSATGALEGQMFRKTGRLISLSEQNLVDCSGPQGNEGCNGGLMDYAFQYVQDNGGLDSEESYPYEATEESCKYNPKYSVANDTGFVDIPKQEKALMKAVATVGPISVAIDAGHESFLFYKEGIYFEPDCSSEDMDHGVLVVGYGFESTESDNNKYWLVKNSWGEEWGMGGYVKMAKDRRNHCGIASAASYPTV
T1 sequence (P00800 233-548): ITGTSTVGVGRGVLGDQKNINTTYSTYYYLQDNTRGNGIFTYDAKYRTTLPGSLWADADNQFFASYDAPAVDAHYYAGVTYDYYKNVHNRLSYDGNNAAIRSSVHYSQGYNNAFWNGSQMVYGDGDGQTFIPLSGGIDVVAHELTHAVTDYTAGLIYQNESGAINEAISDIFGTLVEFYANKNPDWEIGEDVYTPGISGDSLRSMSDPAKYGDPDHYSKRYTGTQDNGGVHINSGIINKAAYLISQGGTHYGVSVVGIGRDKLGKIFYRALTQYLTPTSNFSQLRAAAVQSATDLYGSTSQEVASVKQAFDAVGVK
T2 sequence (P00791 60-385): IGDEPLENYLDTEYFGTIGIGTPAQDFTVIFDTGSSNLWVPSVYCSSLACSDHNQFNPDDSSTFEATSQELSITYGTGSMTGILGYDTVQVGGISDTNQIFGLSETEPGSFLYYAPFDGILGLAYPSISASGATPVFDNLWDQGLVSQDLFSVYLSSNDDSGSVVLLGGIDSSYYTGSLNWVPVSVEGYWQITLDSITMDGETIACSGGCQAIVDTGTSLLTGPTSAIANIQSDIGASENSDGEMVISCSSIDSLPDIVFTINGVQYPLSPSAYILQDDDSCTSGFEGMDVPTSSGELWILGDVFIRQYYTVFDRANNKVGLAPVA

As for `O=C(O)Cc1ccccc1Nc1c(Cl)cccc1Cl` [Diclo, Diclofenac, reference compound], the “Area rel. [%] (liver microsomes, PC)” value is 49.0% in data set [1] (time 10 min) and 3.8% in data set [1] (time 35 min).
For the compound `O=C(O)CN(CCN(CC(=O)O)CC(=O)O)CC(=O)O` [EDTA, reference compound], the “inhibited enzyme activity (thermolysin), control inhibitor” value in data set [2] is listed as > 95%.
On to `CCCCC/C=C/C(=O)N[C@@H](Cc1ccc(O)cc1)C(=O)N[C@H](/C=C/C(=O)O)CCCNC(=N)N` [drawing 45], for which the inhibition in data set [3] was determined as 50%; in data set [4], 95%.
For `CCCCC/C=C/C(=O)N[C@@H](Cc1ccc(O)cc1)C(=O)N[C@@H](/C=C/C(=O)O)CCCCN` [drawing 46], the inhibition in data set [3] turned out to be 73%; in data set [4], 96%.
For `CCCCC/C=C/C(=O)N[C@@H](Cc1ccccc1)C(=O)N[C@H](/C=C/C(=O)O)CCCNC(=N)N` [drawing 47], the inhibition in data set [3] turned out to be 41%; in data set [4], 90%.
With `CCCCC/C=C/C(=O)N[C@@H](Cc1ccc(O)cc1)C(=O)N[C@@H](/C=C/C(=O)O)CCCNC(=N)N` [drawing 48], the values for the inhibition in data set [3] and in data set [4] were 15% and 20%, respectively.
In the same order, the values of `CCCCCCCC(=O)N[C@@H](Cc1ccc(O)cc1)C(=O)N[C@H](/C=C/C(=O)O)CCCNC(=N)N` [drawing 50] are 30% and 80%.
In the case of `CCCCC/C=C/C(=O)N[C@@H](Cc1ccc(O)cc1)C(=O)N[C@H](/C=C/C(=O)O)CCCNC(=N)N` [drawing 51], the “Area rel. [%] (GSH assay, NC)” value in data set [5] came to 91.9%. Further, the “Area rel. [%] (GSH assay)” value in data set [5] (pH 7.4, time 30 min) was 93.3%; in data set [5] (pH 7.4, time 90 min) it was 94.2%.
In the same order, the values of `CCCCC/C=C/C(=O)N[C@@H](Cc1ccc(O)cc1)C(=O)N[C@@H](/C=C/C(=O)O)CCCCN` [drawing 52] are 103.9%, 104.3% and 98.0%.
As to `CCCCC/C=C/C(=O)N[C@@H](Cc1ccccc1)C(=O)N[C@H](/C=C/C(=O)O)CCCNC(=N)N` [drawing 53], in data set [5], the “Area rel. [%] (GSH assay, NC)” value is reported as 101.8%. Also, the “Area rel. [%] (GSH assay)” value in data set [5] (pH 7.4, time 30 min) is 102.7%; in data set [5] (pH 7.4, time 90 min) it was 106.2%.
Turning to `CCCCC/C=C/C(=O)N[C@H](Cc1ccc(O)cc1)C(=O)N[C@H](/C=C/C(=O)O)CCCNC(=N)N` [drawing 55], in data set [5], the “Area rel. [%] (GSH assay, NC)” value stood at 91.9%. Moreover, in data set [5] (pH 7.4, time 90 min), the “Area rel. [%] (GSH assay)” value came to 98.6%.
Taken in the same sequence, the figures for `CC(=O)N[C@@H](Cc1ccc(O)cc1)C(=O)N[C@H](/C=C/C(=O)O)CCCNC(=N)N` [drawing 58] were 108.9% and 112.8%.
On to `CCCCC/C=C/C(=O)N[C@@H](Cc1ccc(O)cc1)C(=O)N[C@H](/C=C/C(=O)O)CCCNC(=N)N` [drawing 59], for which the “Area rel. [%] (liver microsomes, NC)” value in data set [1] is recorded as 92.3%.
In the case of `CCCCC/C=C/C(=O)N[C@@H](Cc1ccc(O)cc1)C(=O)N[C@@H](/C=C/C(=O)O)CCCCN` [drawing 60], in data set [1], the “Area rel. [%] (liver microsomes, NC)” value was 95.7%.
Same read-out and setting: for `CCCCC/C=C/C(=O)N[C@@H](Cc1ccccc1)C(=O)N[C@H](/C=C/C(=O)O)CCCNC(=N)N` [drawing 61] the value was 89.2%; for `CCCCC/C=C/C(=O)N[C@@H](Cc1ccc(O)cc1)C(=O)N[C@@H](/C=C/C(=O)O)CCCNC(=N)N` [drawing 62], 102.8%.
With `CCCCC/C=C/C(=O)N[C@H](Cc1ccc(O)cc1)C(=O)N[C@H](/C=C/C(=O)O)CCCNC(=N)N` [drawing 63], the “Area rel. [%] (liver microsomes, NC)” value in data set [1] came to 105.8%.
The same measure, in the same setting: the same measure for `CCCCCCCC(=O)N[C@@H](Cc1ccc(O)cc1)C(=O)N[C@H](/C=C/C(=O)O)CCCNC(=N)N` [drawing 64]: 104.3%; for `CCCCCCCC(=O)N[C@@H](Cc1ccc(O)cc1)C(=O)N[C@@H](CCCNC(=N)N)CCC(=O)O` [drawing 65]: 99.5%; for `CC(=O)N[C@@H](Cc1ccc(O)cc1)C(=O)N[C@H](/C=C/C(=O)O)CCCNC(=N)N` [drawing 66]: 111.9%.
As for `CC(C)CC(=O)N[C@H](C(=O)N[C@H](C(=O)N[C@@H](CC(C)C)[C@@H](O)CC(=O)N[C@@H](C)C(=O)N[C@@H](CC(C)C)[C@@H](O)CC(=O)O)C(C)C)C(C)C` [pepstatin A, reference compound] (Isovaleryl-VV[Sta]A[Sta]-OH), the “inhibited enzyme activity (pepsin), control inhibitor” value in data set [6] is given as > 95%.

Usually inhibition stands for the drop in the measured response relative to a control, in per cent.
